{"source": "patent US20050080260A1", "about": "“Preparation of prodrugs for selective drug delivery” (priority 2003, published 2005)", "key": {"[1]": {"system": "Ba-L strain of HIV-1", "experiment": "Anti-HIV-1 potency in macrophage assay (p24 ELISA)", "type": "cell-based, HIV-1 in human monocyte/macrophages", "details": "for IC50: Human immunodeficiency virus 1, BAL, Macrophage", "procedure": "(§1) Evaluation of Prodrug Anti-HIV-1 Potency in Macrophage Assay. The anti HIV-1 evaluation of the carriers and their conjugates was performed in 6-day old monocyte/macrophages at Southern Research Institute, Frederick, Md. Briefly, peripheral blood monocytes were isolated from normal HIV-1 negative donors by plastic adherence following ficoll hypaque purification of the buffy coats. The monocytes were then cultured for 6 days to a macrophage-like phenotype. The test compounds were serially diluted and added to the cultures followed by the addition of a pretitered amount of the Ba-L strain of HIV-1 obtained from the NIAID AIDS Research and Reference Reagent Repository. Cultures were washed by media removal 24 hours post infection, fresh compound added and the cultures continued for an additional 6 days. HIV p24 antigen content to assess virus replication was measured by p24 ELISA assay. AZT and ddc were used as positive control compounds and run in parallel with each determination. […] At assay termination, the assay plates were stained with the tetrazolium based dye MTS to determine cell viability and quantify compound toxicity. Using a computer program at Southern Research Institute, IC50 (50% inhibition of virus replication), TC50 (50% cytotoxicity) and a therapeutic index (TI, […]) were obtained."}, "[2]": {"system": "monocyte/macrophages", "experiment": "Toxicity on replicate uninfected macrophage plates (MTS cell viability)", "type": "cell-based, human", "details": "Southern Research Institute tests, TABLES 7-9", "procedure": "as §1"}, "[3]": {"experiment": "Toxicity on replicate uninfected macrophage plates (MTS cell viability)", "type": "cell-based, human", "details": "human, uninfected macrophages, MTS, read-out: TC50 (50% cytotoxicity)", "procedure": "as §1"}, "[4]": {"system": "Friends Leukemia Virus (FLV)", "experiment": "Anti-retroviral potency in a murine model (FLV-infected mice, spleen and body weight)", "type": "in vivo, Swiss mice", "details": "for Average Final Weight / Average Weight Change / Average Spleen Weight: FLV-infected four-week old Swiss mice, 300 nanomoles on days 5-9, sacrificed day 12; for Average Spleen Weight: p < 0.01 for MTLJ-1-Foscarnet; for weight gain: FLV-infected mice, treated group", "procedure": "(§2) Evaluation Foscarnet Prodrug Anti-Retroviral Potency in a Murine Model. The effect of prodrug MTLJ-1-Foscarnet on four-week old Swiss mice infected with Friends Leukemia Virus (FLV) was tested by the Luminide Pharmaceutical Corporation. The mice were infected with FLV by an IP injection with 0.5 ml viral solution prepared by resuspending F4-6 cells (1×10^6 cells/ml) in fresh media and harvesting that media 24 hr later and filtering through a […] filter. The Foscarnet Group received 300 nanomoles of Foscarnet on days 5-9. The Carrier Group received 300 nanomoles of carrier on days 5-9. The MTLJ-1-Foscarnet Group received 300 nanomoles of MTLJ-1-Foscarnet on days 5-9. All mice were sacrificed on day 12. The spleens were removed and weighed. The toxicity of the carrier MTLJ-1 was also evaluated by the determination of its LD50."}, "[5]": {"experiment": "Acute toxicity, determination of LD50", "type": "in vivo", "procedure": "as §2"}, "[6]": {"details": "TABLE 8 (6a carrier and ddc prodrug, Southern Research Institute), HIV-1 Ba-L, human macrophages, p24 antigen, read-out: IC50 (50% inhibition of virus replication)"}, "[7]": {"details": "TABLE 9 (6a carrier and Foscarnet prodrug, Southern Research Institute), HIV-1 Ba-L, human macrophages, p24 antigen, read-out: IC50 (50% inhibition of virus replication)"}, "[8]": {"details": "TABLE 10, Southern Research Institute under NIH contract, HIV-1 in human macrophages, read-out: IC50"}, "[9]": {"details": "TABLE 9 (6a carrier and Foscarnet prodrug)"}, "[10]": {"details": "TABLE 10, Southern Research Institute under NIH contract"}, "[11]": {"details": "TABLE 7 (negative control carrier test, Southern Research Institute), HIV-1 Ba-L, human macrophages, p24 antigen, read-out: IC50 (50% inhibition of virus replication)"}, "[12]": {"details": "TABLE 7 (negative control carrier test)"}}, "note": "Read-outs that look alike come from different tables or passages of the source. Marks after values point to notes of the source that are not given here."}
{"smiles": "CCN(c1ccc(/C(=C/C=C/C(=C2C=CC(=[N+](CC)c3ccc4c(=O)[nH][nH]c(=O)c4c3)C=C2)c2ccc(N(C)C)cc2)c2ccc(N(C)C)cc2)cc1)c1ccc2c(=O)[nH][nH]c(=O)c2c1", "note": "[6a]", "values": [{"measurement": "IC50", "setting": "[1]; [6]", "result": "> 100", "unit": "µM"}, {"measurement": "IC50", "setting": "[1]; [7]", "result": 23.1, "unit": "µM"}, {"measurement": "IC50", "setting": "[1]; [8]", "result": 2.62, "unit": "µM"}, {"measurement": "TI (TC50/IC50)", "setting": "[1]; [9]", "result": ">4.48"}, {"measurement": "TI (TC50/IC50)", "setting": "[1]; [10]", "result": ">38.2"}, {"measurement": "Toxicity in macrophage assay (in words)", "setting": "[2]", "result": "nontoxic"}, {"measurement": "CC50 at 7 days", "setting": "[3]; TABLE 8 (6a carrier and ddc prodrug)", "result": "> 100", "unit": "µM"}, {"measurement": "CC50 at 7 days", "setting": "[3]; [9]", "result": "> 104", "unit": "µM"}]}
{"smiles": "O=C([O-])P(=O)([O-])[O-].[Na+].[Na+].[Na+]", "note": "[Foscarnet, phosphonoformate, reference compound]", "values": [{"measurement": "Average Final Weight", "setting": "[4]", "result": 18.9, "unit": "g"}, {"measurement": "Average Weight Change", "setting": "[4]", "result": "+1.5 g"}, {"measurement": "Average Spleen Weight", "setting": "[4]", "result": 0.1727, "unit": "g"}, {"measurement": "weight gain", "setting": "[4]", "result": 1.5, "unit": "grams"}, {"measurement": "IC50", "setting": "[1]; [11]", "result": 0.55, "unit": "µM"}, {"measurement": "IC50", "setting": "[1]; [7]", "result": 1.83, "unit": "µM"}, {"measurement": "TI (TC50/IC50)", "setting": "[1]; [12]", "result": ">18"}, {"measurement": "TI (TC50/IC50)", "setting": "[1]; [9]", "result": ">182.08"}, {"measurement": "CC50 at 7 days", "setting": "[3]; [12]", "result": "> 10", "unit": "µM"}, {"measurement": "CC50 at 7 days", "setting": "[3]; [9]", "result": "> 333", "unit": "µM"}]}
{"smiles": "CCN(c1ccc(/C(=C/C=C/C(=C2C=CC(=[N+](CC)c3ccc4c(=O)[nH][nH]c(=O)c4c3)C=C2)c2ccccc2)c2ccccc2)cc1)c1ccc2c(=O)[nH][nH]c(=O)c2c1", "note": "[GZW1-98-2]", "values": [{"measurement": "IC50", "setting": "[1]; [8]", "result": 23.1, "unit": "µM"}, {"measurement": "TI (TC50/IC50)", "setting": "[1]; [10]", "result": ">4.3"}]}
{"smiles": "CCN(c1ccc(/C(=C/C=C/C=C2C=CC(=[N+](C)C)C=C2)c2ccc(N(C)C)cc2)cc1)c1ccc2c(=O)[nH][nH]c(=O)c2c1", "note": "[GZW2-33-1]", "values": [{"measurement": "IC50", "setting": "[1]; [8]", "result": 18.9, "unit": "µM"}, {"measurement": "TI (TC50/IC50)", "setting": "[1]; [10]", "result": ">5.3"}]}
{"smiles": "CCCC(NCCN(CC)c1ccc(/C(=C/C=C/C(OP(=O)(O)C(=O)O)(c2ccc(N(C)C)cc2)c2ccc(N(CC)CCNC(CCC)N(CC)c3ccc4c(=O)[nH][nH]c(=O)c4c3)cc2)c2ccc(N(C)C)cc2)cc1)N(CC)c1ccc2c(=O)[nH][nH]c(=O)c2c1", "note": "(stereo not drawn) [MTLJ-1-Foscarnet]", "values": [{"measurement": "Toxicity in vivo (in words)", "setting": "[5]; from LD50 and weight gain", "result": "nontoxic"}, {"measurement": "LD50", "setting": "[5]; mouse, in vivo, ip", "result": "> 1250", "unit": "mg/kg"}, {"measurement": "Spleen weights compared with control groups (in words)", "setting": "[4]; FLV-infected Swiss mice", "result": "the same as those of the No Virus, No Treatment Group"}, {"measurement": "Suppression of FLV infection in mice (in words)", "setting": "[4]; FLV-infected Swiss mice, significance level of 0.01, Students T test", "result": "highly effective"}, {"measurement": "Average Final Weight", "setting": "[4]", "result": 22.4, "unit": "g"}, {"measurement": "Average Weight Change", "setting": "[4]", "result": "+2.5 g"}, {"measurement": "Average Spleen Weight", "setting": "[4]", "result": "0.0914^a g"}, {"measurement": "weight gain", "setting": "[4]", "result": 2.5, "unit": "grams"}]}
{"smiles": "CCCCc1ccc(C(/C=C/C=C(\\c2ccc(CCCC)cc2)c2ccc(OCCN(CC)c3ccc4c(=O)[nH][nH]c(=O)c4c3)cc2)=C2C=CC(=[O+]CCN(CC)c3ccc4c(=O)[nH][nH]c(=O)c4c3)C=C2)cc1", "note": "[YY99811-1]", "values": [{"measurement": "IC50", "setting": "[1]; [11]", "result": "> 10", "unit": "µM"}, {"measurement": "Toxicity in macrophage assay (in words)", "setting": "[2]", "result": "nontoxic"}, {"measurement": "CC50 at 7 days", "setting": "[3]; [12]", "result": "> 10", "unit": "µM"}]}
{"smiles": "Nc1ccn([C@H]2CC[C@@H](CO)O2)c(=O)n1", "note": "[ddc, dideoxycytidine, reference compound]", "values": [{"measurement": "TI (TC50/IC50)", "setting": "[1]", "result": ">2,500"}, {"measurement": "IC50", "setting": "[1]; [6]", "result": 0.07, "unit": "µM"}, {"measurement": "IC50", "setting": "[1]; [8]", "result": 0.04, "unit": "µM"}]}
